Test results taken from patent publication US11072638B2, “Immunostimulating peptides” (AIMVION A/S, priority 2016, dated 2021).
Bridge positions count the residues as written; N and C are the ends. Ends that are not written are not given here. I, II: the chains in the order shown.

Legend:
[1] = test system: THP-1 cells; experiment: IL-6 levels in LPS-stimulated THP-1 cells, 6 h (Example 1); type: cell-based, human; details: for % IL-6 secretion level compared to LPS-stimulated control: THP-1, 1 μg/μl LPS for 6 h, + above, − below LPS-only control (100%); for Release of cytokines, including pro-inflammatory cytokines such as IL-6, TNF-alpha, and IL-8: pre-treatment of cells with peptide
Method: The modulatory function of peptides SG #4, SG #8, SG #13, and SG #14 on the expression levels of IL-6 in the human acute monocytic leukaemia cell line THP-1 was examined. THP-1 cells were maintained in RPMI 1640 supplemented with 10% FBS, 100 U/ml penicillin, 100 μg/ml streptomycin and 2 mM L-glutamine at 37° C. in a 5% CO2 incubator. THP-1 cells are known to induce IL-6, TNFα, IL-10 and IL-8 mRNA and protein in response to lipopolysaccharide (LPS) treatment. THP-1 cells were left untreated or incubated with 0 uM, 7.5 μM, 15 μM, 30 μM, 60 μM or 100 μm of each of the peptides, and stimulated with […] LPS for 6 h, based on previous analyses to find the optimal dose and incubation times.
(−) inhibition indicates percentage (%) of inhibition as compared to only LPS treated samples (arbitrarily set at 100%).

[2] = test system: female BALB/c mice; experiment: Anti-ovalbumin IgG1 ELISA after in vivo immunization of mice (Example 3); details: s.c. day 1 and day 14, 5 μg SG#4 + 50/25 μg ovalbumin per animal, serum at day 21
Text: Chicken ovalbumin has been used to trigger T cell activation in immunology studies. Ovalbumin immunized mice produce anti-OVA antibodies predominantly of the IgG1 and IgE isotypes that mediate tissue-specific effector functions in multiple mouse models. Thus, it is often desirable to measure anti-OVA antibody levels in the plasma or serum to determine the effectiveness of the immunization/induction of a TH2-mediated immune response. Here, we tested the effectiveness of the SG #4 peptide in inducing of a TH2-mediated immune response in female BALB/c mice. The study agents contained Ovalbumin alone, peptide construct SG #4 alone or ovalbumin in combination with SG #4. […]
An ELISA assay was carried out according to the manufacturer's protocol, as follows. […] This Goat Anti-mouse IgG1 was labeled with HRP, allowing quantification of the […]. Addition of the HRP Substrate 3,3′,5,5′-tetramethylbenzidine (TMB), following by Stop Solution produces a yellow colored product which was measured spectrophotometrically. […] 1 mL of the top standard concentration (250 pg/mL anti-ovalbumin IgG1 quantification) was prepared in 1× Assay Diluent A (1×AD) from the anti-ovalbumin IgG1 stock solution. […] Using computer reduction software, absorbance (linear y-axis) for standard versus concentration (linear x-axis) is plotted and data is fitted with a quadratic equation. […]

LQNKRGLGLSILLNEECGPGPGP (disulfide I:17-II:17 (inferred)) [SG#8]
% IL-6 secretion level compared to LPS-stimulated control ([1]; 7.5 μM peptide): +1.472% | % IL-6 secretion level compared to LPS-stimulated control ([1]; 15 μM peptide): +14.54% | % IL-6 secretion level compared to LPS-stimulated control ([1]; 30 μM peptide): +6.835% | % IL-6 secretion level compared to LPS-stimulated control ([1]; 60 μM peptide): +7.655% | % IL-6 secretion level compared to LPS-stimulated control ([1]; 100 μM peptide): +20.86% | Release of cytokines, including pro-inflammatory cytokines such as IL-6, TNF-alpha, and IL-8 [1]: promotes the release of cytokines

LQNRRGLGLSILLNC (disulfide I:15-II:15 (inferred)) [SG#4]
% IL-6 secretion level compared to LPS-stimulated control ([1]; 7.5 μM peptide): +12.99% | % IL-6 secretion level compared to LPS-stimulated control ([1]; 15 μM peptide): +20.76% | % IL-6 secretion level compared to LPS-stimulated control ([1]; 30 μM peptide): +38.19% | % IL-6 secretion level compared to LPS-stimulated control ([1]; 60 μM peptide): +36.39% | % IL-6 secretion level compared to LPS-stimulated control ([1]; 100 μM peptide): +13.27% | Release of cytokines, including pro-inflammatory cytokines such as IL-6, TNF-alpha, and IL-8 [1]: promotes the release of cytokines | Induction of immune response (anti-ovalbumin IgG1) versus ovalbumin alone [2]: significantly higher induction of immune response

LQNRRGLGLSILLNEE (Mutated sequence) [SG#13]
% IL-6 secretion level compared to LPS-stimulated control ([1]; 7.5 μM peptide): −5.765% | % IL-6 secretion level compared to LPS-stimulated control ([1]; 15 μM peptide): +6.907% | % IL-6 secretion level compared to LPS-stimulated control ([1]; 30 μM peptide): −5.286% | % IL-6 secretion level compared to LPS-stimulated control ([1]; 60 μM peptide): +8.616% | % IL-6 secretion level compared to LPS-stimulated control ([1]; 100 μM peptide): +36.98% | Release of cytokines, including pro-inflammatory cytokines such as IL-6, TNF-alpha, and IL-8 [1]: promotes the release of cytokines

LQNRRGLGLSILLNEELQNRRGL (Mutated sequence) [SG#14]
% IL-6 secretion level compared to LPS-stimulated control ([1]; 7.5 μM peptide): −2.981% | % IL-6 secretion level compared to LPS-stimulated control ([1]; 15 μM peptide): −0.4476% | % IL-6 secretion level compared to LPS-stimulated control ([1]; 30 μM peptide): +0.7403% | % IL-6 secretion level compared to LPS-stimulated control ([1]; 60 μM peptide): +28.52% | % IL-6 secretion level compared to LPS-stimulated control ([1]; 100 μM peptide): +15.21% | Release of cytokines, including pro-inflammatory cytokines such as IL-6, TNF-alpha, and IL-8 [1]: promotes the release of cytokines
